Here are results for 29 molecules from patent US9783536B2, “Nitrogen-containing heterocyclic compound or salt thereof” (FUJIFILM Corporation, priority 2013, dated 2017).

pIC50: −log10 of the molar value. Some results are limits rather than exact numbers.

The target of test [1] is T1, GST fusion human ERK2 protein (Homo sapiens, UniProt P28482).
T1 construct: purchased Carna Biosciences, Inc; host or cells: E. coli expression system
Put plainly: ERK2 enzyme assay (2). Type of test: biochemical. The note with it: ERK2 enzyme assay (2); read-out: ERK2 enzyme inhibitory activity (2). The procedure, abridged:
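IC50 values come from mobility-shift measurement of phosphorylated versus unphosphorylated 5-FAM peptide substrate after EDTA quench. Beforehand, compound and 1.25 nmol/L E. coli-expressed GST–human ERK2 stood 15 min at room temperature (pH 7.5), then 1 mmol/L ATP and 4.25 μmol/L substrate (final) were added for 120 min at 25 °C.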

Another test concerns the target T2, human PI3Kα protein (Homo sapiens, UniProt P42336).
T2 construct: purchased Carna Biosciences, Inc; host or cells: baculovirus expression system
Put plainly: PI3Kα enzyme assay (ADP-Glo). The note with it: read-out: PI3Kα enzyme inhibitory activity. The test is classed as biochemical. The procedure, abridged:
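Biotinylated human PI3Kα (baculovirus-expressed, 4.5 nmol/L) pre-incubated 15 min with compound in Tris-HCl pH 7.5, MgCl2, BSA; reaction 60 min at 25° C with 50 μmol/L PIP2 and 100 μmol/L ATP final. ADP quantified by ADP-Glo luminescence; IC50 calculated.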
(In general: ADP-Glo turns the ADP formed in a reaction into a luminescent signal.)

T2 sequence (P42336 whole entry): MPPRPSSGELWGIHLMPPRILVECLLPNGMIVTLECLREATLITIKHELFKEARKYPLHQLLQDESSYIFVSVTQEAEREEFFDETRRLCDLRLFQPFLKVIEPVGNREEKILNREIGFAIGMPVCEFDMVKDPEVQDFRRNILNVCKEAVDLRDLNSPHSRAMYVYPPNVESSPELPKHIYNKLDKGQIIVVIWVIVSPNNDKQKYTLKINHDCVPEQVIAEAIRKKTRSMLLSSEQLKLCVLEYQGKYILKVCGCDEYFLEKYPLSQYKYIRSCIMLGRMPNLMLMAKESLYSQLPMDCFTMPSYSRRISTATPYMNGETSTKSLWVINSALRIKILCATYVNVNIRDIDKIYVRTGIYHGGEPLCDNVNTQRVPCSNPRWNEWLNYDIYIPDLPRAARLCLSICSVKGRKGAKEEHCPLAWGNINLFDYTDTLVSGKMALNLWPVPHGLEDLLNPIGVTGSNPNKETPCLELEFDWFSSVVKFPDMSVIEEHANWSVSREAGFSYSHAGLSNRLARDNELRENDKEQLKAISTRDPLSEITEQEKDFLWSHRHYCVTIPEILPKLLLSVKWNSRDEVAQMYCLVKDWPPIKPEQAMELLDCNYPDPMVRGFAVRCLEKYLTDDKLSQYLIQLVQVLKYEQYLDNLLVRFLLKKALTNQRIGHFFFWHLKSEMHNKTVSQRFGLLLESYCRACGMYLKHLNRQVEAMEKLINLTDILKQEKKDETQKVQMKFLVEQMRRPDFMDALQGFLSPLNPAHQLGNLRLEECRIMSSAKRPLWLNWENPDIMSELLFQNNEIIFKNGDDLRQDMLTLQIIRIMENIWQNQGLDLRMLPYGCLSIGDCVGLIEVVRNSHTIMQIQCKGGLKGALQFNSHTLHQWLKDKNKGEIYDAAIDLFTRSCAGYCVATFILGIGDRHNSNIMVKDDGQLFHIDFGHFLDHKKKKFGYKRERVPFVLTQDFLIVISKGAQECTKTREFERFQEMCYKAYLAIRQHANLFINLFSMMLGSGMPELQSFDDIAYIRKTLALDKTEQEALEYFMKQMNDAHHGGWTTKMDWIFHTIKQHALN
T2 sequence (P27986 whole entry partner): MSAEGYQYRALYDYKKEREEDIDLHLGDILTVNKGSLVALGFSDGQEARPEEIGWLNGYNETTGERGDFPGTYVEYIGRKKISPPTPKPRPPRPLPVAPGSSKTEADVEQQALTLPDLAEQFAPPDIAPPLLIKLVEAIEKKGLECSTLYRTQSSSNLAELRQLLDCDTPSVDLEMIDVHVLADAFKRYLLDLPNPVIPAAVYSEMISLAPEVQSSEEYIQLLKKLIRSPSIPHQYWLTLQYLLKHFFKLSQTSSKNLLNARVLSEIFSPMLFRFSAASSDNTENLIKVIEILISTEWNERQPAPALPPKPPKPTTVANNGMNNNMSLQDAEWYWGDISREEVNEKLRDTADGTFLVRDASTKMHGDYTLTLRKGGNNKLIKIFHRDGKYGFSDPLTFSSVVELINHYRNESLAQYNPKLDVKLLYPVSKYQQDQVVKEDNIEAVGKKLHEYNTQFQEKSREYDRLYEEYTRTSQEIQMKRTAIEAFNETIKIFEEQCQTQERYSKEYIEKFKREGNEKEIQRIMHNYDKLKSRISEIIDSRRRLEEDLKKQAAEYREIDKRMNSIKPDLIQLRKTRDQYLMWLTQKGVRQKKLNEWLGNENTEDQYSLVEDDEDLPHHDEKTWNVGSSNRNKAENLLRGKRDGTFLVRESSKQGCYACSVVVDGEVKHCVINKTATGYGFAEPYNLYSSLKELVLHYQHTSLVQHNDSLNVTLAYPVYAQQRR
T1 sequence (P28482 whole entry, the tested form may be a part): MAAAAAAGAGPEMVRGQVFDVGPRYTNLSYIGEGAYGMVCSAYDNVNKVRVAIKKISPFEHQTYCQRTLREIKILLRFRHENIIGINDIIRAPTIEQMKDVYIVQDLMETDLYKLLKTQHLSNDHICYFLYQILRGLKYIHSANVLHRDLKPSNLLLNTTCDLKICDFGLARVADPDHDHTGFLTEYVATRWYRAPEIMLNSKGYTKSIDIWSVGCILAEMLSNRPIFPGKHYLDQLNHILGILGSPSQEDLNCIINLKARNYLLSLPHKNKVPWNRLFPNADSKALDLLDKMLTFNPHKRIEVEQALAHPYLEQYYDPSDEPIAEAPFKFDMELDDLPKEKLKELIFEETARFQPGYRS

On to `c1nnc(Nc2ccc3ncc(-c4cnn(CCOC5CNC5)c4)cc3n2)cc1CC1CCCCC1` [Example 0817], for which the pIC50 (in test [1]; at human PI3Kα protein) was greater than 6.00 in each case.
For `CCC(CC)c1cnnc(Nc2ccc3ncc(-c4cnn(CCOC5CN(C(C)C)C5)c4)cc3n2)c1` [Example 0818], the pIC50 (in test [1]; at human PI3Kα protein) was greater than 6.00 in each case.
As to `CC(C)N1CC(OCCn2cc(-c3cnc4ccc(Nc5cc(CC6CCCCC6)cnn5)nc4c3)cn2)C1` [Example 0819], the pIC50 (in test [1]; at human PI3Kα protein) was greater than 6.00 each time.
Turning to `CC(C)c1cnnc(Nc2ccc3ncc(-c4cn(C)nc4Oc4ccccc4)cc3n2)c1` [Example 0820], the pIC50 (in test [1]; on human PI3Kα protein) was greater than 6.00 each time.
On to `CC(C)c1cnnc(Nc2ccc3ncc(-c4cn(C)nc4COC4CN(C(=O)OC(C)(C)C)C4)cc3n2)c1` [Example 0821, tert-Butyl 3-((4-(6-((5-isopropylpyridazin-3-yl)amino)-1,5-naphthyridin-3-yl)-1-methyl-1H-pyrazol-3-yl)methoxy)azetidine-1-carboxylate], for which the pIC50 (in test [1]; at human PI3Kα protein) was greater than 6.00 each time.
With `CC(C)c1cnnc(Nc2ccc3ncc(-c4cn(C)nc4COC4CNC4)cc3n2)c1` [Example 0822, 7-(3-((Azetidin-3-yloxy)methyl)-1-methyl-1H-pyrazol-4-yl)-N-(5-isopropylpyridazin-3-yl)-1,5-naphthyridine-2-amine], the pIC50 (in test [1]; on human PI3Kα protein) was greater than 6.00 throughout.
Turning to `CC(C)c1cnnc(Nc2ccc3ncc(-c4cn(C)nc4COC4CN(C)C4)cc3n2)c1` [Example 0823, N-(5-isopropylpyridazin-3-yl)-7-(1-methyl-3-(((1-methylazetidin-3-yl)oxy)methyl)-1H-pyrazol-4-yl)-1,5-naphthyridine-2-amine], the pIC50 (in test [1]; on human PI3Kα protein) was greater than 6.00 throughout.
Turning to `CC(C)c1cnnc(Nc2ccc3ncc(-c4cn(C)nc4Cc4cccnc4)cc3n2)c1` [Example 0824, N-(5-isopropylpyridazin-3-yl)-7-(1-methyl-3-(pyridin-3-ylmethyl)-1H-pyrazol-4-yl)-1,5-naphthyridine-2-amine], the pIC50 (in test [1]; on human PI3Kα protein) was greater than 6.00 each time.
In the case of `CC(C)c1cnnc(Nc2ccc3ncc(-c4cn(C)nc4NC4CNC4)cc3n2)c1` [Example 0826], the pIC50 (in test [1]; on human PI3Kα protein) was greater than 6.00 each time.
On to `CC(C)c1cnnc(Nc2ccc3ncc(-c4cn(C)nc4NC4CN(C)C4)cc3n2)c1` [Example 0827, N-(5-isopropylpyridazin-3-yl)-7-(1-methyl-3-((1-methylazetidin-3-yl)amino)-1H-pyrazol-4-yl)-1,5-naphthyridine-2-amine], for which the pIC50 (in test [1]; at human PI3Kα protein) was greater than 6.00 each time.
On to `CC(C)c1cnnc(Nc2ccc3ncc(-c4cn(C)nc4Cc4ccccc4)cc3n2)c1` [Example 0828], for which the pIC50 (in test [1]; at human PI3Kα protein) was greater than 6.00 in each case.
For the molecule `CC(C)c1cnnc(Nc2ccc3ncc(-c4cn(C)nc4Nc4ccccc4)cc3n2)c1` [Example 0829], the pIC50 (in test [1]; on human PI3Kα protein) was greater than 6.00 in each case.
For `CC(C)c1cnnc(Nc2ccc3ncc(-c4cn(C)nc4NC4CCCCC4)cc3n2)c1` [Example 0830, 7-(3-(cyclohexylamino)-1-methyl-1H-pyrazol-4-yl)-N-(5-isopropylpyridazin-3-yl)-1,5-naphthyridine-2-amine], the pIC50 (in test [1]; at human PI3Kα protein) was greater than 6.00 in each case.
Take `CC(C)c1cnnc(Nc2ccc3ncc(-c4cn(C)nc4NC4COC4)cc3n2)c1` [Example 0831]: the pIC50 (in test [1]; on human PI3Kα protein) was greater than 6.00 in each case.
On to `CC(C)c1cnnc(Nc2ccc3ncc(-c4cn(C)nc4NC4CCOCC4)cc3n2)c1` [Example 0832], for which the pIC50 (in test [1]; at human PI3Kα protein) was greater than 6.00 in each case.
Turning to `CC(C)c1cnnc(Nc2ccc3ncc(-c4cn(C)nc4NCc4cccnc4)cc3n2)c1` [Example 0833], the pIC50 (in test [1]; at human PI3Kα protein) was greater than 6.00 throughout.
As for `CC(C)c1cnnc(Nc2ccc3ncc(-c4cn(C)nc4NCc4ccccn4)cc3n2)c1` [Example 0834], the pIC50 (in test [1]; on human PI3Kα protein) was greater than 6.00 throughout.
Regarding `CC(C)c1cnnc(Nc2ccc3ncc(-c4cn(C)nc4NCc4ccncc4)cc3n2)c1` [Example 0835], the pIC50 (in test [1]; at human PI3Kα protein) was greater than 6.00 throughout.
For the molecule `CC(C)c1cnnc(Nc2ccc3ncc(-c4cn(C)nc4NCc4cnn(C)c4)cc3n2)c1` [Example 0836], the pIC50 in test [1] is 5.00 to 6.00; at human PI3Kα protein it was greater than 6.00.
On to `CC(C)c1cnnc(Nc2ccc3ncc(-c4cc(-c5ccccn5)nn4C)cc3n2)c1` [Example 0837, N-(5-isopropylpyridazin-3-yl)-7-(1-methyl-3-(pyridin-2-yl)-1H-pyrazol-5-yl)-1,5-naphthyridine-2-amine], for which the pIC50 in test [1] was greater than 6.00; at human PI3Kα protein, 5.00 to 6.00.
In the same order, the values of `CC(C)c1cnnc(Nc2ccc3ncc(-c4cn(C)nc4-c4ccccn4)cc3n2)c1` [Example 0838, N-(5-isopropylpyridazin-3-yl)-7-(1-methyl-3-(pyridin-2-yl)-1H-pyrazol-4-yl)-1,5-naphthyridine-2-amine] are greater than 6.00 and greater than 6.00.
In the same order, the values of `Cc1ccc(S(=O)(=O)Nc2cnc3ccc(Nc4cc(C(C)C)cnn4)nc3c2)cc1` [Example 0839, N-(6-((5-isopropylpyridazin-3-yl)amino)-1,5-naphthyridin-3-yl)-4-methylbenzene sulfonamide] are 5.00 to 6.00 and 4.30 to 5.00.
In the same order, the values of `CC(C)c1cnnc(Nc2ccc3ncc(NS(C)(=O)=O)cc3n2)c1` [Example 0840, N-(6-((5-isopropylpyridazin-3-yl)amino)-1,5-naphthyridin-3-yl)methane sulfonamide] are 5.00 to 6.00 and 5.00 to 6.00.
`CC(C)c1cnnc(Nc2ccc3ncc(N(C)S(C)(=O)=O)cc3n2)c1` [Example 0841, N-(6-((5-isopropylpyridazin-3-yl)amino)-1,5-naphthyridin-3-yl)-N-methylmethane sulfonamide]: the pIC50 (in test [1]; at human PI3Kα protein) was 5.00 to 6.00 each time.
Take `CC(C)c1cnnc(Nc2ccc3ncc(N4CCN(C)CC4)cc3n2)c1` [Example 0842, N-(5-isopropylpyridazin-3-yl)-7-(4-methylpiperazin-1-yl)-1,5-naphthyridine-2-amine]: the pIC50 (in test [1]; at human PI3Kα protein) was 5.00 to 6.00 throughout.
With `CC(C)c1cnnc(Nc2ccc3ncc(-c4cn(C)nc4-c4ccnnc4)cc3n2)c1` [Example 0843, N-(5-isopropylpyridazin-3-yl)-7-(1-methyl-3-(pyridazin-4-yl)-1H-pyrazol-4-yl)-1,5-naphthyridine-2-amine], the pIC50 (in test [1]; on human PI3Kα protein) was greater than 6.00 in each case.
Consider `CC(C)c1cnnc(Nc2ccc3ncc(-c4cn(C)nc4N4CCOCC4)cc3n2)c1` [Example 0844], for which the pIC50 (in test [1]; at human PI3Kα protein) was greater than 6.00 in each case.
Consider `CC(C)c1cnnc(Nc2ccc3ncc(N4CCCCC4)cc3n2)c1` [Example 0845, N-(5-isopropylpyridazin-3-yl)-7-(piperidin-1-yl)-1,5-naphthyridine-2-amine], for which the pIC50 is greater than 6.00 in test [1] and 5.00 to 6.00 at human PI3Kα protein.
For the molecule `CC(C)c1cnnc(Nc2ccc3ncc(N4CCCC4)cc3n2)c1` [Example 0846, N-(5-isopropylpyridazin-3-yl)-7-(pyrrolidin-1-yl)-1,5-naphthyridine-2-amine], the figures for the pIC50 (in test [1]; on human PI3Kα protein) were greater than 6.00 and 5.00 to 6.00, respectively.
